{
  "source": "patent US20260215432A1",
  "about": "“ANTIMICROBIAL CONJUGATED OLIGOELECTROLYTES AND METHODS THEREOF” (National University of Singapore, priority 2023, published 2026)",
  "key": {"PAO1": {"tested_on": "PAO1", "assay": "Propidium iodide influx assay", "format": "cell-based, P. aeruginosa", "settings": "PAO1, 2 to 8 μg mL^−1 (half to twice the MIC)", "text": "Another hallmark of cytoplasmic membrane damage is an enhanced permeability towards small molecules. Propidium iodide (PI) is a membrane-impermeant organic dye that can be used to study potential mechanisms of action of antibiotics due to its enhanced fluorescence intensity upon binding to intracellular DNA. Treatment with molecules that cause membrane perturbations enable rapid influx of the dye, resulting in an increase in fluorescence emission that can be monitored over time. […] This difference hints at two plausible mechanisms of action that are concentration dependent. Similar observations have been made for tobramycin, where a protein inhibition mode of action at lower concentrations (<4 μg mL^−1) is supplanted by disruption of the outer membrane at higher concentrations (8 μg mL^−1).\nThe assay was performed according to a modified reported protocol.^4 Briefly, the corresponding bacteria was collected from mid-log cultures by centrifugation (7000 rpm, 10 minutes) and washed thrice with PBS. The pellet was then resuspended in the same buffer and diluted to an optical density of 2 by extrapolation. […] Fluorescence intensity was measured over time in a plate reader with an excitation wavelength of 525 nm and emission wavelength of 620 nm. Fluorescence signals were measured every 30 seconds and carried out in triplicate."}, "P. aeruginosa": {"tested_on": "P. aeruginosa", "assay": "Resistance development by serial passaging at 0.5× MIC", "format": "cell-based", "procedure": "The non-specific action of membrane-active antibiotics lends itself to minimal development of resistance development due to the large metabolic burden involved, unlike traditional antibiotics with a well-defined enzymatic target. Based on this premise, we passaged bacteria incubated with DM6P, or ciprofloxacin (control), at 0.5× MIC to investigate the adaptation of bacteria towards external antibiotic stress. As a control, treatment of MRSA with ciprofloxacin gave rise to antibiotic-resistant mutants within 4 passages, see FIG. 4a. […] Combined with its broad spectrum of activity, this feature opens opportunities for the use of COE antimicrobial agents to address polymicrobial infections with a lower rate of emerging antibiotic resistance."}, "MRSA": {"tested_on": "MRSA", "assay": "Transmission electron microscopy of treated cells", "format": "cell-based, S. aureus", "settings": "4 μg mL^−1 for 30 minutes", "procedure": "Damage to the bacterial cell membrane was observed by transmission electron microscopy (TEM). S. aureus cells were incubated with DM6P at 4 μg mL^−1 for 30 minutes and fixed immediately to preserve the membrane ultrastructure as close to the point of cell death as possible. […] In FIG. 7d, cytoplasmic membrane separation, which is a key hallmark of plasmolysis was also observed in a cell, presumably in an earlier stage of death prior to leakage of intracellular components. These observations are consistent with micrographs from cells treated by membrane active AMPs Gramicidin S and PGLa. Taken together, these morphological features are in line with the central idea that TPP-COEs induce damage to the cellular membrane, similar to previously studied COEs. Cellular leakage, protein delocalization and inactivation, and small-molecule permeation are downstream observations frequently associated with cell membrane perturbations.\nA mid-log culture of MRSA was treated either with DM6P at 4 Ig mL^−1 or PBS (control) and incubated for 30 minutes. Cells were then fixed with 4% glutaraldehyde at 4° C. overnight and collected by centrifugation (7000 rpm, 10 minutes). The cell pellets were post-fixed with 0.2% OsO4, serially dehydrated in a graded ethanol series, and embedded in an epoxy resin. […]"}, "[1]": {"tested_on": "M. abscesses (ATCC 19977)", "assay": "MIC against mycobacterium in Middlebrook 7H9 broth", "format": "cell-based, M. abscessus", "procedure": "We also examined non-tuberculous mycobacteria (NTM). These are opportunistic pathogens that are rising in clinical significance due to their increasing prevalence and treatment difficulty. The membrane of Mycobacterium is inherently a greater antibiotic permeability barrier due to its high lipid content relative to other pathogens and long-tailed mycolic acids that contributed to its high lipophilic character. The antimicrobial activity of the TPP analogues were also evaluated against Mycobacterium in Middlebrook 7H9 broth."}, "[2]": {"tested_on": "Staphylococcus pseudintermedius", "assay": "Mouse wound infection model, S. pseudintermedius", "format": "in vivo, mice", "settings": "for average CFU: S. pseudintermedius mouse wound", "text": "Staphylococcus pseudintermedius (SP) is particularly pathogenic towards dogs, with skin infections such as pyoderma being characterized by a lengthy treatment period and high treatment failure due to antimicrobial resistance. Here, we show high in vivo antimicrobial efficacy of compounds of FIG. 11 in a mouse wound infection model, featuring over a 3-log reduction in bacterial load at low concentrations. The grouping tested with saline has an average CFU of 5.16×10^8 CFU/g. The grouping tested with DM6P (0.1 mg/kg) has an average CFU of 1.62×10^7 CFU/g. The grouping tested with DM6P (0.25 mg/kg) has an average CFU of 5.51×10^5 CFU/g.\nFor testing against Staphylococcus pseudintermedius, C57BL/6[SPF] mice (female, 18-20 g) were first acclimated, weighed and grouped based on body weight into 3 groups. Mice were anaesthetized and the hair at the back will be shaved and removed. A 6 mm-diameter excisional wound was created on the back of each mouse, and log-phase Staphylococcus pseudintermedius (Sp strain) (in 5 μL PBS) will be inoculated onto the wound. A 3M tegaderm will be used to cover the wound site from contamination. 2 h post infection, the groups were tested with saline, DM6P (0.1 mg/kg) and DM6P (0.25 mg/kg) respectively, by adding directly to wound site. At 12 h and 24 h post infection, sampling and colony enumeration were conducted. At 24 h post infection, all mice were sacrificed and the wound tissue harvested into 1 mL PBS."}},
  "data": [
    {"smiles": "COc1cc(/C=C/c2ccc(OCCCCCC[P+](c3ccccc3)(c3ccccc3)c3ccccc3)c(OC)c2)ccc1OCCCCCC[P+](c1ccccc1)(c1ccccc1)c1ccccc1.[I-].[I-]", "note": "[DM6P]", "values": [
      {"measurement": "PI influx", "setting": "PAO1", "result": "increase in PI influx appeared to be independent of concentration"},
      {"measurement": "resistance development", "setting": "P. aeruginosa", "result": "did not induce any observable resistant mutants"},
      {"measurement": "membrane damage by TEM", "setting": "MRSA", "result": "visible cellular shrinkage and membrane disintegration"},
      {"measurement": "MIC M. abscesses", "setting": "[1]", "result": 8, "unit": "µg/mL"},
      {"measurement": "average CFU", "setting": "[2]; 0.1 mg/kg", "result": "1.62×10^7 CFU/g"},
      {"measurement": "average CFU", "setting": "[2]; 0.25 mg/kg", "result": "5.51×10^5 CFU/g"},
      {"measurement": "tolerability (side effects)", "setting": "[2]; mice, following compound administration", "result": "did not show any negative side effects"}
    ]}
  ]
}
